In patent publication US20230398243A1, “THERAPEUTIC, RADIOLABELED NANOPARTICLES AND METHODS OF USE THEREOF” (The General Hospital Corporation, priority 2020, published 2023):

System: MDA-MB-231-luc-D3H2LN cell line
Assay: tumor cell apoptosis, proliferation, invasion, migration and cell cycle
Assay type: cell-based, human
Details: low-dose doxorubicin
Description: 21.6±0.5-nm dextran coated magnetic nanoparticles were conjugated to 8±0.7 LNA antagomirs targeting miRNA-10b, (Exiqon, Woburn, MA) (FIG. 1A). The MN-anti-miR10b therapeutic was functional in the human lymph-node metastatic MDA-MB-231-luc-D3H2LN cell line (Perkin Elmer, Hopkinton MA). […] In order to assess the therapeutic potential of this methodology, the effect of miR-10b inhibition on tumor cell apoptosis, proliferation, invasion and migration was investigated.
It was also hypothesized that by co-administering a low dose of a cytotoxic chemotherapeutic (e.g., doxorubicin), the effectiveness of the therapeutic could be amplified, leading not only to inhibition of tumor growth, but regression and, possibly, elimination of metastasis. […] Further proof for this hypothesis came from experiments in which we attempted to generate a miR-10b knock-out subline derived from the MDA-MB-231-luc-D3H2LN cell line (FIG. 3A). We observed that within 24 h of transfection with the knock-out vector set (TALEN5 L+R), the cells acquired a spindle-shaped conformation and began to detach. By 72 h of transfection, there were no viable cells (FIG. 3B).

With COc1cccc2c1C(=O)c1c(O)c3c(c(O)c1C2=O)C[C@@](O)(C(=O)CO)C[C@@H]3O[C@H]1C[C@H](N)[C@H](O)[C@H](C)O1 [doxorubicin] the “effect on the cell cycle (flow cytometry)” value was “induced polyploidy and G2/M arrest”.
